From BindingDB's records for doi:10.1016/j.bmcl.2005.09.022 (Bristol-Myers Squibb Pharmaceutical Research Institute, 2005)

Target: C-C chemokine receptor type 4 (Mus musculus) (UniProt P51680)
Assay: Inhibition of chemotaxis of murine CCR4 transfected L1.2 cells

C-C chemokine receptor type 4 (Mus musculus), sequence (P51680 whole entry, looked up): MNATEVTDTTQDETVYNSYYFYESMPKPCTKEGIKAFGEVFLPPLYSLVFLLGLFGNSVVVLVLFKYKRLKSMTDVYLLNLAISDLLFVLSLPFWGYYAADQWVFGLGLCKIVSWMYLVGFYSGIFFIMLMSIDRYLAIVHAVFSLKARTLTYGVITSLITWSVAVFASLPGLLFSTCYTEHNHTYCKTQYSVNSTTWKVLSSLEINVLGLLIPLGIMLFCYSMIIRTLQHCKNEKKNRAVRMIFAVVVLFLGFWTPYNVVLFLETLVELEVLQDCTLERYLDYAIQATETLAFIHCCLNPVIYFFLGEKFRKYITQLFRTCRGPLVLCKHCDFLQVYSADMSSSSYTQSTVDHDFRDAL

IC50: 380 nM
Compound: O=C([C@H]1CCCCN1)N1CCN(c2nccc(NCc3ccc(Cl)cc3Cl)n2)CC1 [(R)-(4-(4-(2,4-dichlorobenzylamino)pyrimidin-2-yl)piperazin-1-yl)(piperidin-2-yl)methanone]
